Data taken from patent US20250325534A1, “MICROBIOCIDAL TETRAHYDROISOQUINOLINE DERIVATIVES” (SYNGENTA CROP PROTECTION AG, priority 2021, published 2025).

Assays:
Botryotinia fuckeliana = Botryotinia fuckeliana (Botrytis cinerea) / liquid culture (gray mould); type: cell-based; conditions: 72 h, growth inhibition photometrically 3-4 days after application, read-out: control of Botryotinia fuckeliana
Experimental: (§1) Example B2: Botryotinia Fuckeliana (Botrytis cinerea)/Liquid Culture (Gray Mould) Conidia of the fungus from cryogenic storage are directly mixed into a nutrient broth (Vogels broth). After placing a DMSO solution of test compound into a microtiter plate (96-well format), the nutrient broth containing the fungal spores is added. The test plates are incubated at 24° C. and the inhibition of growth is determined photometrically 3-4 days after application.

Monographella nivalis = Monographella nivalis (Microdochium nivale) / liquid culture (foot rot cereals); type: cell-based; conditions: 96 h, photometrically 4-5 days after application, read-out: control of Monographella nivalis
Summary of the method: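 Microdochium nivale conidia in potato dextrose broth were added to test compound in DMSO and incubated at 24° C. Growth inhibition was measured photometrically 4-5 days after application.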

Mycosphaerella arachidis = Mycosphaerella arachidis (Cercospora arachidicola) / liquid culture (early leaf spot); type: cell-based; conditions: 96 h, photometrically 4-5 days after application, read-out: control of Mycosphaerella arachidis
Summary of the method: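 Cryostored M. arachidis conidia in potato dextrose broth were added to compound applied as DMSO solution. Incubated at 24 °C; growth inhibition measured photometrically 4-5 days after application.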

[1] = tested on: Mycosphaerella graminicola; assay: Mycosphaerella graminicola (Septoria tritici) / liquid culture (Septoria blotch); type: cell-based; conditions: Zymoseptoria tritici, 96 h, photometrically 4-5 days after application, read-out: control of Mycosphaerella graminicola
Summary of the method: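 Conidia from cryogenic storage mixed into potato dextrose broth, added to test compound in DMSO. Plates incubated at 24° C; growth inhibition read photometrically 4-5 days after application.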

Alternaria solani = Alternaria solani / tomato / leaf disc (early blight); type: in vivo; conditions: foliar, inoculated 2 days after application, vs untreated control
Experimental: Example B1: Alternaria solani/Tomato/Leaf Disc (Early Blight) Tomato leaf disks cv. Baby are placed on agar in multiwell plates (24-well format) and sprayed with the formulated test compound diluted in water. The leaf disks are inoculated with a spore suspension of the fungus 2 days after application. The inoculated leaf disks are incubated at 23° C./21° C. (day/night) and 80% relative humidity under a light regime of 12 h/12 h (light/dark) in a climate cabinet and the activity of a compound is assessed as percent disease control compared to untreated when an appropriate level of disease damage appears on untreated check disk leaf disks (5-7 days after application).

Glomerella lagenarium = Glomerella lagenarium (Colletotrichum lagenarium) / liquid culture (anthracnose); type: cell-based; conditions: Colletotrichum orbiculare, 72 h, photometrically 3-4 days after application, read-out: control of Glomerella lagenarium
Experimental: as §1, with “B5: Glomerella Lagenarium (Colletotrichum Lagenarium)/Liquid” for “B2: Botryotinia Fuckeliana (Botrytis cinerea)/Liquid”, “(Anthracnose)” for “(Gray Mould)”, “(potato dextrose” for “(Vogels”, “measured” for “determined”

| Compound | inhibition of growth at 20 ppm (Botryotinia fuckeliana) | inhibition of growth at 20 ppm (Monographella nivalis) | inhibition of growth at 20 ppm (Mycosphaerella arachidis) | inhibition of growth at 20 ppm [1] | pest or weed control at 200 ppm (Alternaria solani) | inhibition of growth at 20 ppm (Glomerella lagenarium) |
| --- | --- | --- | --- | --- | --- | --- |
| Cn1cc(C2CN(C(=O)c3cc(-c4ccc(F)cc4F)on3)Cc3ccc(F)cc32)cn1 (stereo not drawn) [Compound P-135, [5-(2,4-difluorophenyl)isoxazol-3-yl]-[6-fluoro-4-(1-methylpyrazol-4-yl)-3,4-dihydro-1H-isoquinolin-2-yl]methanone] | ≥ 80% | ≥ 80% | ≥ 80% | ≥ 80% | – | – |
| Cn1cc(C2CN(C(=O)c3nnc(-c4ccc(F)cc4F)o3)Cc3ccccc32)cn1 (stereo not drawn) [Compound P-55, [5-(2,4-difluorophenyl)-1,3,4-oxadiazol-2-yl]-[4-(1-methylpyrazol-4-yl)-3,4-dihydro-1H-isoquinolin-2-yl]methanone] | – | – | – | ≥ 80% | ≥ 80% | – |
| CCn1cc(C2CN(C(=O)c3cc(-c4ccc(F)cc4F)on3)Cc3ccccc32)cn1 (stereo not drawn) [Compound P-131, [5-(2,4-difluorophenyl)isoxazol-3-yl]-[4-(1-ethylpyrazol-4-yl)-3,4-dihydro-1H-isoquinolin-2-yl]methanone] | – | – | – | ≥ 80% | ≥ 80% | – |
| Cc1nn(C)c(C)c1C1CN(C(=O)c2cc(-c3ccccc3)on2)Cc2ccccc21 (stereo not drawn) [Compound P-148, (5-phenylisoxazol-3-yl)-[4-(1,3,5-trimethylpyrazol-4-yl)-3,4-dihydro-1H-isoquinolin-2-yl]methanone] | – | – | ≥ 80% | ≥ 80% | ≥ 80% | – |
| Cn1cc(C2CN(C(=O)c3nc(-c4ccc(F)cc4F)no3)Cc3ccccc32)cn1 (stereo not drawn) [Compound P-127, [3-(2,4-difluorophenyl)-1,2,4-oxadiazol-5-yl]-[4-(1-methylpyrazol-4-yl)-3,4-dihydro-1H-isoquinolin-2-yl]methanone] | – | ≥ 80% | – | ≥ 80% | ≥ 80% | – |
| Cn1cc(C2CN(C(=O)c3cc(-c4ccsc4)on3)Cc3ccccc32)cn1 (stereo not drawn) [Compound P-181, [4-(1-methylpyrazol-4-yl)-3,4-dihydro-1H-isoquinolin-2-yl]-[5-(3-thienyl)isoxazol-3-yl]methanone] | – | – | ≥ 80% | ≥ 80% | ≥ 80% | ≥ 80% |
| Cn1cc(C2CN(C(=O)c3cc(-c4ccc(F)cc4F)on3)Cc3cc(F)ccc32)cn1 (stereo not drawn) [Compound P-134, [5-(2,4-difluorophenyl)isoxazol-3-yl]-[7-fluoro-4-(1-methylpyrazol-4-yl)-3,4-dihydro-1H-isoquinolin-2-yl]methanone] | – | ≥ 80% | ≥ 80% | ≥ 80% | ≥ 80% | – |
| Cn1cc(C2CN(C(=O)c3cc(-c4cccc(F)c4)no3)Cc3ccccc32)cn1 (stereo not drawn) [Compound P-159, [3-(3-fluorophenyl)isoxazol-5-yl]-[4-(1-methylpyrazol-4-yl)-3,4-dihydro-1H-isoquinolin-2-yl]methanone] | ≥ 80% | ≥ 80% | ≥ 80% | ≥ 80% | – | – |
| Cc1nn(C)c(C)c1C1CN(C(=O)c2cc(-c3ccc(F)cc3)on2)Cc2ccccc21 (stereo not drawn) [Compound P-118, [5-(4-fluorophenyl)isoxazol-3-yl]-[4-(1,3,5-trimethylpyrazol-4-yl)-3,4-dihydro-1H-isoquinolin-2-yl]methanone] | – | – | ≥ 80% | ≥ 80% | ≥ 80% | – |
| Cn1cc(C2CN(C(=O)c3cc(-c4ccccc4F)on3)Cc3ccccc32)cn1 (stereo not drawn) [Compound P-191, [5-(2-fluorophenyl)isoxazol-3-yl]-[4-(1-methylpyrazol-4-yl)-3,4-dihydro-1H-isoquinolin-2-yl]methanone] | – | ≥ 80% | ≥ 80% | ≥ 80% | ≥ 80% | ≥ 80% |
| Cn1cc(C2CN(C(=O)c3cc(C4CCC4)on3)Cc3ccccc32)cn1 (stereo not drawn) [Compound P-182, (5-cyclobutylisoxazol-3-yl)-[4-(1-methylpyrazol-4-yl)-3,4-dihydro-1H-isoquinolin-2-yl]methanone] | – | – | ≥ 80% | ≥ 80% | ≥ 80% | – |
| Cn1cc(C2CN(C(=O)c3cc(-c4ccccc4)on3)Cc3ccccc32)cn1 (single isomer, unassigned) [Compound P-165] | – | ≥ 80% | ≥ 80% | ≥ 80% | ≥ 80% | ≥ 80% |
| Cn1cc([C@]2(C)CN(C(=O)c3nnc(-c4ccc(F)cc4F)s3)Cc3ccccc32)cn1 [Compound P-208, [5-(2,4-difluorophenyl)-1,3,4-thiadiazol-2-yl]-[(4R)-4-methyl-4-(1-methylpyrazol-4-yl)-1,3-dihydroisoquinolin-2-yl]methanone] | – | – | – | – | ≥ 80% | – |
| Cn1ncc(C2CN(C(=O)c3cc(-c4ccc(F)cc4F)on3)Cc3ccccc32)c1Cl (stereo not drawn) [Compound P-38, [4-(5-chloro-1-methyl-pyrazol-4-yl)-3,4-dihydro-1H-isoquinolin-2-yl]-[5-(2,4-difluorophenyl)isoxazol-3-yl]methanone] | – | – | – | – | ≥ 80% | – |
| Cn1cc(C2CN(C(=O)c3cc(-c4cccc(F)c4)on3)Cc3ccccc32)cn1 (stereo not drawn) [Compound P-168, [5-(3-fluorophenyl)isoxazol-3-yl]-[4-(1-methylpyrazol-4-yl)-3,4-dihydro-1H-isoquinolin-2-yl]methanone] | – | – | – | ≥ 80% | ≥ 80% | – |
| Cc1c(C2CN(C(=O)c3nnc(-c4ccc(F)cc4F)o3)Cc3ccccc32)cnn1C (stereo not drawn) [Compound P-225] | – | – | – | – | ≥ 80% | – |
| Cn1cc(C2CN(C(=O)c3noc(-c4ccccc4)n3)Cc3ccccc32)cn1 (stereo not drawn) [Compound P-146, [4-(1-methylpyrazol-4-yl)-3,4-dihydro-1H-isoquinolin-2-yl]-(5-phenyl-1,2,4-oxadiazol-3-yl)methanone] | – | – | – | – | ≥ 80% | – |
| Cc1nn(C)c(C)c1C1CN(C(=O)c2cc(-c3ccc(F)cc3F)sn2)Cc2ccccc21 (stereo not drawn) [Compound P-115, [5-(2,4-difluorophenyl)isothiazol-3-yl]-[4-(1,3,5-trimethylpyrazol-4-yl)-3,4-dihydro-1H-isoquinolin-2-yl]methanone] | – | – | – | ≥ 80% | ≥ 80% | – |
| Cn1ncc(C2CN(C(=O)c3cc(-c4ccc(F)cc4F)on3)Cc3ccccc32)c1F (stereo not drawn) [Compound P-52, [5-(2,4-difluorophenyl)isoxazol-3-yl]-[4-(5-fluoro-1-methyl-pyrazol-4-yl)-3,4-dihydro-1H-isoquinolin-2-yl]methanone] | – | – | – | – | ≥ 80% | – |
| Cc1nn(C)c(C)c1C1CN(C(=O)c2cc(-c3ccc(F)cc3F)on2)Cc2ncccc21 (stereo not drawn) [Compound P-124, [5-(2,4-difluorophenyl)isoxazol-3-yl]-[5-(1,3,5-trimethylpyrazol-4-yl)-6,8-dihydro-5H-1,7-naphthyridin-7-yl]methanone] | – | – | – | – | ≥ 80% | – |
| Cn1cc(C2CN(C(=O)c3noc(-c4cccc(F)c4)n3)Cc3ccccc32)cn1 (stereo not drawn) [Compound P-92, [5-(3-fluorophenyl)-1,2,4-oxadiazol-3-yl]-[4-(1-methylpyrazol-4-yl)-3,4-dihydro-1H-isoquinolin-2-yl]methanone] | – | ≥ 80% | ≥ 80% | ≥ 80% | ≥ 80% | ≥ 80% |
| Cn1cc(C2c3ccccc3CN(C(=O)c3cc(-c4ccc(F)cc4F)on3)C2(C)C)cn1 (stereo not drawn) [Compound P-105, [5-(2,4-difluorophenyl)isoxazol-3-yl]-[3,3-dimethyl-4-(1-methylpyrazol-4-yl)-1,4-dihydroisoquinolin-2-yl]methanone] | – | – | – | – | ≥ 80% | – |
| COC(=O)C1c2ccccc2C(c2cnn(C)c2)CN1C(=O)c1cc(-c2ccc(F)cc2F)on1 (stereo not drawn) [Compound P-42, methyl 2-[5-(2,4-difluorophenyl)isoxazole-3-carbonyl]-4-(1-methylpyrazol-4-yl)-3,4-dihydro-1H-isoquinoline-1-carboxylate] | – | – | – | – | ≥ 80% | – |
| Cc1c(C2CN(C(=O)c3cc(-c4ccc(F)cc4F)on3)Cc3ccccc32)cnn1C (stereo not drawn) [Compound P-140, [5-(2,4-difluorophenyl)isoxazol-3-yl]-[4-(1,5-dimethylpyrazol-4-yl)-3,4-dihydro-1H-isoquinolin-2-yl]methanone] | – | – | – | – | ≥ 80% | – |
